According to PubChem BioAssay AID743128 (Broad Institute, 2013):
Where “and” joins values, the source holds several entries; their conditions need not be identical. Identical values can stand only once. Calls of active or inactive are those of the source.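 The calls were made as follows: active = compounds lowering the signal whose fitted half-maximal concentration is at most twice the top tested dose; inconclusive = flat curve with 30 to 70% inhibition, or poor fit; inactive = the rest.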

System: C. neoformans growth, alamar blue, 24 h
Assay: antifungal activity, alamar blue, dry powder, counter-screen for C. neoformans cell wall antifungals, dose response (AID 743128)
Conditions: not given

For `Cc1ccc2c(c1)[nH]c(=S)n2CCOc1ccccc1`, which AC50 is on record?
Its AC50 is 24.3 µM.

For `Cc1ccc(OCCn2c(SCCO)nc3ccccc32)c(C(C)C)c1`, which AC50 is on record?
Its AC50 is 25.1 µM.

For `Cc1ccc(C(C)C)c(OCCn2c(=S)[nH]c3ccccc32)c1`, which AC50 is on record?
Its AC50 is 4.14 µM.

For `CCOC(=O)c1c(-c2ccc(-c3ccccc3)cc2)csc1NC(=O)CNCCN(C)C`, which AC50 is on record?
Its AC50 is 21.7 µM.

Which AC50 does the source give for `Cc1ccc(OCCn2c(=S)[nH]c3ccccc32)cc1` here?
The AC50 was 9.48 µM.

Which AC50 does the source give for `S=c1[nH]c2cccc(Cl)c2n1CCOc1ccccc1` here?
The AC50 was 6.35 µM.

For `CCOc1ccc(OCCn2c(=S)[nH]c3ccccc32)cc1`, which AC50 is on record?
The AC50 was 25.5 µM.

For `Cc1ccc(OCCn2c(=S)[nH]c3ccccc32)c(C(C)C)c1`, which AC50 is on record?
The AC50 was 5.33 µM and 5.68 µM.

With `COC(=O)C1=C(C)N(Cc2ccc(Br)cc2)C(=S)NC1c1ccc(OC)cc1` (configuration not stated) as the molecule, how does the AC50 read?
Its AC50 is 9.31 µM.

For `Cc1ccccc1OCCn1c(=S)[nH]c2ccccc21`, which AC50 is on record?
The AC50 was 8.04 µM.

With `COC(=O)C1=C(C)N(Cc2ccc(Br)cc2)C(=S)NC1c1ccc(F)cc1` (configuration not stated) as the molecule, how does the AC50 read?
Its AC50 is 4.9 µM.

For `COC(=O)C1=C(C)N(Cc2ccc(Cl)cc2)C(=S)NC1c1ccc(Br)cc1` (configuration not stated), which AC50 is on record?
The AC50 was 1.97 µM.

Which AC50 does the source give for `Fc1cccc2c1[nH]c(=S)n2CCOc1ccccc1` here?
Its AC50 is 25.4 µM.

Which AC50 does the source give for `COC(=O)C1=C(C)N(Cc2ccc(F)cc2)C(=S)NC1c1cccc(F)c1` (configuration not stated) here?
The AC50 was 18.3 µM.

With `CCOC(=O)c1c(NC(=O)CN2CCN(C)CC2)sc(C)c1-c1ccc(C)cc1` as the molecule, how does the AC50 read?
Its AC50 is 25.7 µM.

Which AC50 does the source give for `CCOC(=O)c1c(-c2ccc(C(C)(C)C)cc2)csc1NC(=O)CN1CCN(C)CC1` here?
Its AC50 is 15 µM.

Which AC50 does the source give for `CCOC(=O)c1c(-c2ccc(C(C)(C)C)cc2)csc1NC(=O)CN1CCN(CC)CC1` here?
The AC50 was 15.7 µM.

Which AC50 does the source give for `S=c1[nH]c2ccccc2n1CCOc1ccccc1` here?
Its AC50 is 24.9 µM.

With `COC(=O)C1=C(C)N(Cc2ccccc2)C(=S)NC1c1ccc(Br)cc1` (configuration not stated) as the molecule, how does the AC50 read?
Its AC50 is 8.1 µM.

With `S=c1[nH]c2ccccc2n1CCOc1ccc(Cl)cc1` as the molecule, how does the AC50 read?
Its AC50 is 10.9 µM.

With `Fc1ccccc1OCCn1c(=S)[nH]c2ccccc21` as the molecule, how does the AC50 read?
The AC50 was 25.4 µM.

System: not listed separately
Assay: as above
Conditions: C. neoformans growth, alamar blue, 24 h; at 35 µM (top of the series)

Which activity change, negative = inhibition does the source give for `CCOC(=O)c1c(-c2ccc(F)cc2)csc1NC(=O)CN1CCN(C)CC1` here?
The activity change, negative = inhibition was -11.2% (inactive).

Which activity change, negative = inhibition does the source give for `CCOC(=O)c1c(-c2ccc(OC)cc2)csc1NC(=O)CN(C)CC(=O)N(C)C` here?
The activity change, negative = inhibition was -14.4% (inactive).

For `c1ccc(OCCn2cnc3ccccc32)cc1`, which activity change, negative = inhibition is on record?
Its activity change, negative = inhibition is -10.7% (inactive).

With `CCOC(=O)c1c(NC(=O)CNCCN(C)C)sc(C)c1-c1ccccc1` as the molecule, how does the activity change, negative = inhibition read?
Its activity change, negative = inhibition is -16.3% (inactive).

Which activity change, negative = inhibition does the source give for `Cc1cccc(OCCn2c(=S)[nH]c3cc(C(F)(F)F)ccc32)c1` here?
The activity change, negative = inhibition was 8.48% (inactive).

With `O=c1[nH]c2ccccc2n1CCOc1ccccc1` as the molecule, how does the activity change, negative = inhibition read?
The activity change, negative = inhibition was -1.57% (inactive) and -23.3% (inactive).
